Source: patent publication US20130129732A1, “METHOD FOR […]” (LANXESS Deutschland GmbH, priority 2009, published 2013)

Key:
Assay type in all cases: cell-based
Lactobacillus frigidus = assay: Microbial reduction (MLC) in clear apple juice seeded with Lactobacillus frigidus, preservative with or without PEF; conditions: 10^5 CFU/ml, after 1 week
Excerpt: (§1) In the examples hereinafter, the Elcrack® apparatus of the Deutsche Institute für Lebensmitteltechnik e. V. [German Institute for food technology] was used for the PEF treatment.
(§2) The treatment proceeded at differing field strengths and energy densities, wherein the pulse width was 20 μs and the pulse frequency 400 Hz.
(§3) In the examples hereinafter, in each case clear apple juice was admixed with stirring by means of a propeller agitator with a microbial or spore suspension, then after approximately 3 minutes, optionally further antimicrobially active substances, and thereafter after approximately 2 minutes, DMDC. The microbial or spore suspension was added in such a manner that a defined amount of cells, generally 10^3 to 10^5 CFU/ml were present in the apple juice.
(§4) The apple juice was then treated by PEF (using the above-described Elcrack® apparatus). As further microbially active substances, sodium benzoate or potassium sorbate were used.
(§5) As a measure for microbial reduction, the median logarithmic cell count reduction (MLC) was determined. In this case the logarithm of the surviving cell count is subtracted from the logarithm of the initial cell count. The higher the MLC value, the higher the microbial reduction and the better the activity is.
(§6) A: Bacillilus subtilis DSM 347 (ATCC 6633) B: Penicillium roqueforti DSM 1079 (ATCC 34908) C: Lactobacillus frigidus DSM 6235 D: Saccharomyces […] DSM 70449 (ATCC 18824)

Bacillus subtilis = assay: Microbial reduction (MLC) in clear apple juice seeded with Bacillus subtilis, preservative with or without PEF; conditions: 10^3 CFU/ml
Excerpt: as §1, §2, §3, §4, §5, §6

Penicillium roqueforti = assay: Microbial reduction (MLC) in clear apple juice seeded with Penicillium roqueforti, preservative with or without PEF; conditions: 10^5 CFU/ml
Excerpt: as §1, §2, §3, §4, §5, §6

Saccharomyces cerivisiae = assay: Microbial reduction (MLC) in clear apple juice seeded with Saccharomyces cerivisiae, preservative with PEF; conditions: 10^5 CFU/ml, PEF 5 kV/cm, 3-6 J/ml, after 24 h
Excerpt: as §1, §2, §3, §4, §5, §6

[1] = PEF 35 kV/cm, 110-116 J/ml, after 24 h
[2] = PEF 30 kV/cm, 94-104 J/ml, after 24 h

For `COC(=O)OC(=O)OC` [Example C1, dimethyl dicarbonate], the “MLC (median logarithmic cell count reduction)” value (Lactobacillus frigidus; PEF 30 kV/cm, 88-93 J/ml) was 3.6/1 week.
With `COC(=O)OC(=O)OC` [Example A1, dimethyl dicarbonate] the “MLC (median logarithmic cell count reduction)” value (Bacillus subtilis; [1]) was 2.2/24 h.
With `COC(=O)OC(=O)OC` [Example A4, dimethyl dicarbonate] the “MLC (median logarithmic cell count reduction)” value (Bacillus subtilis; PEF 15 kV/cm, 23 J/ml, after 24 h) was 1.4/24 h.
For `C/C=C/C=C/C(=O)[O-].[K+]` [VB4, potassium sorbate], the “MLC (median logarithmic cell count reduction)” value (Penicillium roqueforti; [2]) was “none; heavy”.
With `COC(=O)OC(=O)OC` [VB1, dimethyl dicarbonate] the “MLC (median logarithmic cell count reduction)” value (Penicillium roqueforti; no PEF, 21° C., after 24 h) was 6.4/24 h.
`C/C=C/C=C/C(=O)[O-].[K+]` [VC3, potassium sorbate] was tested, and the “MLC (median logarithmic cell count reduction)” value (Lactobacillus frigidus; PEF 30 kV/cm, 88-93 J/ml) was 3.0/1 week.
For `C/C=C/C=C/C(=O)[O-].[K+]` [VA2, potassium sorbate], the “MLC (median logarithmic cell count reduction)” value (Bacillus subtilis; [1]) was 0.5/24 h.
In the case of `O=C([O-])c1ccccc1.[Na+]` [VD2, sodium benzoate], the “MLC (median logarithmic cell count reduction)” value (Saccharomyces cerivisiae) is reported as “none; heavy”.
With `COC(=O)OC(=O)OC` [Example D1, dimethyl dicarbonate] the “MLC (median logarithmic cell count reduction)” value (Saccharomyces cerivisiae) was “min 7/24 h”.
With `O=C([O-])c1ccccc1.[Na+]` [VB3, sodium benzoate] the “MLC (median logarithmic cell count reduction)” value (Penicillium roqueforti; [2]) was “none; heavy”.
With `COC(=O)OC(=O)OC` [Example A5, dimethyl dicarbonate] the “MLC (median logarithmic cell count reduction)” value (Bacillus subtilis; PEF 35 kV/cm, 111 J/ml, after 1 week) was 3.0/1 week.
For `COC(=O)OC(=O)OC` [VC1, dimethyl dicarbonate], the “MLC (median logarithmic cell count reduction)” value (Lactobacillus frigidus; no PEF, 21° C.) was 2.3/1 week.
With `C/C=C/C=C/C(=O)[O-].[K+]` [VD3, potassium sorbate] the “MLC (median logarithmic cell count reduction)” value (Saccharomyces cerivisiae) was “none; heavy”.
In the case of `O=C([O-])c1ccccc1.[Na+]` [VC2, sodium benzoate], the “MLC (median logarithmic cell count reduction)” value (Lactobacillus frigidus; PEF 30 kV/cm, 88-93 J/ml) is reported as 2.8/1 week.
`O=C([O-])c1ccccc1.[Na+]` [VA1, sodium benzoate] was tested, and the “MLC (median logarithmic cell count reduction)” value (Bacillus subtilis; [1]) was 2.0/24 h.
With `COC(=O)OC(=O)OC` [Example B5, dimethyl dicarbonate] the “MLC (median logarithmic cell count reduction)” value (Penicillium roqueforti; PEF 30 kV/cm, 94-104 J/ml, after 4 weeks) was “at least 7/4”.
